Laboratory results: the supplement of paper PMC11061612

Assays:
MK-2206 = compound: NC1(c2ccc(-c3nc4ccn5c(=O)[nH]nc5c4cc3-c3ccccc3)cc2)CCC1 [MK-2206]; details: max 10 µM
How it was run: (§1)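 Viability was measured with CellTiter-Glo 2.0 luminescence after 72 hours of dosing at a final DMSO of typically 0.2%, and scaled between blank-well and DMSO-well means. Beforehand, cancer cell lines sat 24 hours at 37°C and 5% CO2 in 1536-well plates in 7.5 μl DMEM/F12 or RPMI with 10% FBS. A non-linear mixed effects model fitted two-parameter logistic curves to the dose responses. The single-agent IC50 comes from these fits.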

AZD2811 = compound: CCN(CCO)CCCOc1ccc2c(Nc3cc(CC(=O)Nc4cccc(F)c4)[nH]n3)ncnc2c1 [AZD2811]; details: max 1 µM
How it was run: as §1

AZD5991 = compound: Cc1c2c(nn1C)CSCc1cc(n(C)n1)CSc1cc(c3ccccc3c1)OCCCc1c(C(=O)O)n(C)c3c-2c(Cl)ccc13 [AZD5991]; details: max 1 µM
How it was run: as §1

Gefitinib = compound: COc1cc2ncnc(Nc3ccc(F)c(Cl)c3)c2cc1OCCCN1CCOCC1 [Gefitinib]; details: max 10 µM
How it was run: as §1

AZD5153 = compound: COc1nnc2ccc(N3CCC(c4ccc(OCCN5CCN(C)C(=O)[C@H]5C)cc4)CC3)nn12 [AZD5153]; details: max 1 µM
How it was run: as §1

SN-38 = compound: CCc1c2c(nc3ccc(O)cc13)-c1cc3c(c(=O)n1C2)COC(=O)[C@]3(O)CC [SN-38]; details: max 0.3 µM
How it was run: as §1

Lapatinib = compound: CS(=O)(=O)CCNCc1ccc(-c2ccc3ncnc(Nc4ccc(OCc5cccc(F)c5)c(Cl)c4)c3c2)o1 [Lapatinib]; details: max 10 µM
How it was run: as §1

Prexasertib = compound: COc1cccc(OCCCN)c1-c1cc(Nc2cnc(C#N)cn2)n[nH]1 [Prexasertib]; details: max 1 µM
How it was run: as §1

Doxorubicin = compound: COc1cccc2c1C(=O)c1c(O)c3c(c(O)c1C2=O)C[C@@](O)(C(=O)CO)C[C@@H]3O[C@H]1C[C@H](N)[C@H](O)[C@H](C)O1 [Doxorubicin]; details: max 1 µM
How it was run: as §1

AZD7648 = compound: Cc1cc2ncnn2cc1Nc1ncc2c(n1)n(C1CCOCC1)c(=O)n2C [AZD7648]; details: max 10 µM
How it was run: as §1

[1] = compound: O=C(Nc1ccc2[nH]nc(-c3ccncc3)c2c1)[C@@H]1CCN(CC(=O)N2CCN(c3ccc(-c4ncccn4)cc3)CC2)C1; details: max 5 µM
How it was run: as §1

SRA737 = compound: N#Cc1cnc(Nc2cc(NC[C@H]3CNCCO3)c(C(F)(F)F)cn2)cn1 [SRA737]; details: max 10 µM
How it was run: as §1

Gemcitabine = compound: Nc1ccn([C@@H]2O[C@H](CO)[C@@H](O)C2(F)F)c(=O)n1 [Gemcitabine]; details: max 0.3 µM
How it was run: as §1

5-Fluorouracil = compound: O=c1[nH]cc(F)c(=O)[nH]1 [5-Fluorouracil]; details: max 20 µM
How it was run: as §1

Venetoclax = compound: CC1(C)CCC(CN2CCN(c3ccc(C(=O)NS(=O)(=O)c4ccc(NCC5CCOCC5)c([N+](=O)[O-])c4)c(Oc4cnc5[nH]ccc5c4)c3)CC2)=C(c2ccc(Cl)cc2)C1 [Venetoclax]; details: max 1 µM
How it was run: as §1

Dasatinib = compound: CC1=C(C(=CC=C1)Cl)NC(=O)C2=CN=C(S2)NC3=CC(=NC(=N3)C)N4CCN(CC4)CCO [Dasatinib]; details: max 2 µM
How it was run: as §1

Crizotinib = compound: C[C@@H](Oc1cc(-c2cnn(C3CCNCC3)c2)cnc1N)c1c(Cl)ccc(F)c1Cl [Crizotinib]; details: max 10 µM
How it was run: as §1

Paclitaxel = compound: CC(=O)O[C@H]1C(=O)[C@@]2(C)[C@H]([C@H](OC(=O)c3ccccc3)[C@]3(O)C[C@H](OC(=O)[C@H](O)[C@@H](NC(=O)c4ccccc4)c4ccccc4)C(C)=C1C3(C)C)[C@]1(OC(C)=O)CO[C@@H]1C[C@@H]2O [Paclitaxel]; details: max 3 µM
How it was run: as §1

AZD6738 = compound: C[C@@H]1COCCN1C2=NC(=NC(=C2)C3(CC3)[S@](=N)(=O)C)C4=C5C=CNC5=NC=C4 [AZD6738]; details: max 10 µM
How it was run: as §1

Taselisib = compound: Cc1nc(-c2cn3c(n2)-c2ccc(-c4cnn(C(C)(C)C(N)=O)c4)cc2OCC3)n(C(C)C)n1 [Taselisib]; details: max 10 µM
How it was run: as §1

Etoposide = compound: COc1cc([C@@H]2c3cc4c(cc3[C@@H](O[C@@H]3O[C@@H]5CO[C@@H](C)O[C@H]5[C@H](O)[C@H]3O)[C@H]3COC(=O)[C@H]23)OCO4)cc(OC)c1O [Etoposide]; details: max 10 µM
How it was run: as §1

AZD0156 = compound: CN(C)CCCOc1ccc(-c2ccc3ncc4c(c3c2)n(C2CCOCC2)c(=O)n4C)cn1 [AZD0156]; details: max 3 µM
How it was run: as §1

Savolitinib = compound: C[C@@H](c1ccc2nccn2c1)n1nnc2ncc(-c3cnn(C)c3)nc21 [Savolitinib]; details: max 1 µM
How it was run: as §1

Selumetinib = compound: Cn1cnc2c(F)c(Nc3ccc(Br)cc3Cl)c(C(=O)NOCCO)cc21 [Selumetinib]; details: max 10 µM
How it was run: as §1

AZD5363 = compound: C1CN(CCC1(C(=O)N[C@@H](CCO)C2=CC=C(C=C2)Cl)N)C3=NC=NC4=C3C=CN4 [AZD5363]; details: max 10 µM
How it was run: as §1

Alisertib = compound: COc1cc(Nc2ncc3c(n2)-c2ccc(Cl)cc2C(c2c(F)cccc2OC)=NC3)ccc1C(=O)O [Alisertib]; details: max 10 µM
How it was run: as §1

SG3199 = compound: CC1=CN2[C@@H](C1)C=NC3=CC(=C(C=C3C2=O)OC)OCCCCCOC4=C(C=C5C(=C4)N=C[C@@H]6CC(=CN6C5=O)C)OC [SG3199]; details: max 0.001 µM
How it was run: as §1

AZD1390 = compound: CC(C)n1c(=O)n(C)c2cnc3cc(F)c(-c4ccc(OCCCN5CCCCC5)nc4)cc3c21 [AZD1390]; details: max 0.3 µM
How it was run: as §1

Trametinib = compound: CC(=O)Nc1cccc(-n2c(=O)n(C3CC3)c(=O)c3c(Nc4ccc(I)cc4F)n(C)c(=O)c(C)c32)c1 [Trametinib]; details: max 1 µM
How it was run: as §1

Palbociclib = compound: CC(=O)c1c(C)c2cnc(Nc3ccc(N4CCNCC4)cn3)nc2n(C2CCCC2)c1=O [Palbociclib]; details: max 10 µM
How it was run: as §1

AZD8186 = compound: C[C@@H](Nc1cc(F)cc(F)c1)c1cc(C(=O)N(C)C)cc2c(=O)cc(N3CCOCC3)oc12 [AZD8186]
How it was run: as §1

Carboplatin = compound: C1CC(C1)(C(=O)[O-])C(=O)[O-].N.N.[Pt+2] [Carboplatin]; details: max 10 µM
How it was run: as §1

AZD1775 = compound: C=CCn1c(=O)c2cnc(Nc3ccc(N4CCN(C)CC4)cc3)nc2n1-c1cccc(C(C)(C)O)n1 [AZD1775]; details: max 3 µM
How it was run: as §1

Olaparib = compound: O=C(c1cc(Cc2n[nH]c(=O)c3ccccc23)ccc1F)N1CCN(C(=O)C2CC2)CC1 [Olaparib]; details: max 10 µM
How it was run: as §1

Capivasertib = compound: C1CN(CCC1(C(=O)N[C@@H](CCO)C2=CC=C(C=C2)Cl)N)C3=NC=NC4=C3C=CN4 [Capivasertib]; details: max 10 µM
How it was run: as §1

AZD4320 = compound: CN(CC[C@H](CSC1=CC=CC=C1)NC2=C(C=C(C=C2)S(=O)(=O)NC(=O)C3=CC=C(C=C3)N4CCC(CC4)[C@H](C5=CC=CC=C5C6=CC=C(C=C6)Cl)O)S(=O)(=O)C(F)(F)F)CCO [AZD4320]; details: max 1 µM
How it was run: as §1

Cell Line: LS-123 (Colorectal Carcinoma)
- IC50, cell viability 72 h (MK-2206): > 10000 nM
- IC50, cell viability 72 h (AZD2811): > 1000 nM
- IC50, cell viability 72 h (AZD5991): > 1000 nM
- IC50, cell viability 72 h (Gefitinib): > 10000 nM
- IC50, cell viability 72 h (AZD5153): > 1000 nM
- IC50, cell viability 72 h (SN-38): > 300 nM
- IC50, cell viability 72 h (Lapatinib): > 10000 nM
- IC50, cell viability 72 h (Prexasertib): 96.4 nM
- IC50, cell viability 72 h (Doxorubicin): 611 nM
- IC50, cell viability 72 h (AZD7648): > 10000 nM
- IC50, cell viability 72 h [1]: 2730 nM
- IC50, cell viability 72 h (SRA737): > 10000 nM
- IC50, cell viability 72 h (Gemcitabine): > 300 nM
- IC50, cell viability 72 h (5-Fluorouracil): > 20000 nM
- IC50, cell viability 72 h (Venetoclax): > 1000 nM
- IC50, cell viability 72 h (Dasatinib): 557 nM
- IC50, cell viability 72 h (Crizotinib): > 10000 nM
- IC50, cell viability 72 h (Paclitaxel): 1210 nM
- IC50, cell viability 72 h (AZD6738): > 10000 nM
- IC50, cell viability 72 h (Taselisib): 1940 nM
- IC50, cell viability 72 h (Etoposide): > 10000 nM
- IC50, cell viability 72 h (AZD0156): > 3000 nM
- IC50, cell viability 72 h (Savolitinib): > 1000 nM
- IC50, cell viability 72 h (Selumetinib): > 10000 nM
- IC50, cell viability 72 h (AZD5363): > 10000 nM
- IC50, cell viability 72 h (Alisertib): > 10000 nM
- IC50, cell viability 72 h (SG3199): > 1 nM
- IC50, cell viability 72 h (AZD1390): > 300 nM
- IC50, cell viability 72 h (Trametinib): 395 nM
- IC50, cell viability 72 h (Palbociclib): > 10000 nM
- IC50, cell viability 72 h (AZD8186; max 10 µM): > 10000 nM
- IC50, cell viability 72 h (Carboplatin): > 10000 nM
- IC50, cell viability 72 h (AZD1775): 2920 nM
- IC50, cell viability 72 h (Olaparib): > 10000 nM

Cell Line: NCI-H1568 (Lung Adenocarcinoma)
- IC50, cell viability 72 h (AZD2811): > 1000 nM
- IC50, cell viability 72 h (AZD5991): > 1000 nM
- IC50, cell viability 72 h (Gefitinib): > 10000 nM
- IC50, cell viability 72 h (AZD5153): > 1000 nM
- IC50, cell viability 72 h (SN-38): 297 nM
- IC50, cell viability 72 h (Lapatinib): > 10000 nM
- IC50, cell viability 72 h (Prexasertib): 424 nM
- IC50, cell viability 72 h (Doxorubicin): > 1000 nM
- IC50, cell viability 72 h (AZD7648): > 10000 nM
- IC50, cell viability 72 h (Venetoclax): > 1000 nM
- IC50, cell viability 72 h (Dasatinib): > 2000 nM
- IC50, cell viability 72 h (Crizotinib): > 10000 nM
- IC50, cell viability 72 h (Capivasertib): > 10000 nM
- IC50, cell viability 72 h (AZD6738): > 10000 nM
- IC50, cell viability 72 h (Taselisib): > 10000 nM
- IC50, cell viability 72 h (AZD4320): > 1000 nM
- IC50, cell viability 72 h (AZD0156): > 3000 nM
- IC50, cell viability 72 h (Savolitinib): > 1000 nM
- IC50, cell viability 72 h (Selumetinib): > 10000 nM
- IC50, cell viability 72 h (Alisertib): > 10000 nM
- IC50, cell viability 72 h (SG3199): > 1 nM
- IC50, cell viability 72 h (AZD1390): > 300 nM
- IC50, cell viability 72 h (Trametinib): > 1000 nM
- IC50, cell viability 72 h (Palbociclib): > 10000 nM
- IC50, cell viability 72 h (AZD8186; max 3 µM): > 3000 nM
- IC50, cell viability 72 h (AZD1775): 1760 nM
- IC50, cell viability 72 h (Olaparib): > 10000 nM

Cell Line: NCI-H2052 (Mesothelioma)
- IC50, cell viability 72 h (MK-2206): > 10000 nM
- IC50, cell viability 72 h (AZD2811): > 1000 nM
- IC50, cell viability 72 h (AZD5991): > 1000 nM
- IC50, cell viability 72 h (Gefitinib): > 10000 nM
- IC50, cell viability 72 h (AZD5153): > 1000 nM
- IC50, cell viability 72 h (SN-38): 38.5 nM
- IC50, cell viability 72 h (Lapatinib): > 10000 nM
- IC50, cell viability 72 h (Prexasertib): 574 nM
- IC50, cell viability 72 h (Doxorubicin): > 1000 nM
- IC50, cell viability 72 h (AZD7648): > 10000 nM
- IC50, cell viability 72 h (Venetoclax): > 1000 nM
- IC50, cell viability 72 h (Dasatinib): 1510 nM
- IC50, cell viability 72 h (Crizotinib): > 10000 nM
- IC50, cell viability 72 h (Capivasertib): > 10000 nM
- IC50, cell viability 72 h (AZD6738): > 10000 nM
- IC50, cell viability 72 h (Taselisib): 3670 nM
- IC50, cell viability 72 h (AZD4320): > 1000 nM
- IC50, cell viability 72 h (AZD0156): > 3000 nM
- IC50, cell viability 72 h (Savolitinib): > 1000 nM
- IC50, cell viability 72 h (Selumetinib): > 10000 nM
- IC50, cell viability 72 h (Alisertib): > 10000 nM
- IC50, cell viability 72 h (SG3199): > 1 nM
- IC50, cell viability 72 h (AZD1390): > 300 nM
- IC50, cell viability 72 h (Trametinib): > 1000 nM
- IC50, cell viability 72 h (Palbociclib): > 10000 nM
- IC50, cell viability 72 h (AZD8186; max 3 µM): > 3000 nM
- IC50, cell viability 72 h (AZD1775): > 3000 nM
- IC50, cell viability 72 h (Olaparib): > 10000 nM
